In patent US9012489B2, “Phenyl-3-aza-bicyclo[3.1.0]hex-3-yl-methanones and the use thereof as medicament” (Boehringer Ingelheim International GmbH, priority 2011, dated 2015):

What follows are compounds tested against T1, GlyT1 transporter (Homo sapiens, UniProt P48067) (assay: GlyT1 assay: 3H-glycine uptake into SK-N-MC cells (Cytostar-T format)). Conditions: glycine uptake in human SK-N-MC cells endogenously expressing GlyT1; 500 nM glycine, 1% DMSO, signal recorded over 60 min.
T1 construct: endogenously expressing the GlyT1 transporter; host or cells: SK-N-MC human neuroblastoma cells
T1 sequence (P48067 1-706): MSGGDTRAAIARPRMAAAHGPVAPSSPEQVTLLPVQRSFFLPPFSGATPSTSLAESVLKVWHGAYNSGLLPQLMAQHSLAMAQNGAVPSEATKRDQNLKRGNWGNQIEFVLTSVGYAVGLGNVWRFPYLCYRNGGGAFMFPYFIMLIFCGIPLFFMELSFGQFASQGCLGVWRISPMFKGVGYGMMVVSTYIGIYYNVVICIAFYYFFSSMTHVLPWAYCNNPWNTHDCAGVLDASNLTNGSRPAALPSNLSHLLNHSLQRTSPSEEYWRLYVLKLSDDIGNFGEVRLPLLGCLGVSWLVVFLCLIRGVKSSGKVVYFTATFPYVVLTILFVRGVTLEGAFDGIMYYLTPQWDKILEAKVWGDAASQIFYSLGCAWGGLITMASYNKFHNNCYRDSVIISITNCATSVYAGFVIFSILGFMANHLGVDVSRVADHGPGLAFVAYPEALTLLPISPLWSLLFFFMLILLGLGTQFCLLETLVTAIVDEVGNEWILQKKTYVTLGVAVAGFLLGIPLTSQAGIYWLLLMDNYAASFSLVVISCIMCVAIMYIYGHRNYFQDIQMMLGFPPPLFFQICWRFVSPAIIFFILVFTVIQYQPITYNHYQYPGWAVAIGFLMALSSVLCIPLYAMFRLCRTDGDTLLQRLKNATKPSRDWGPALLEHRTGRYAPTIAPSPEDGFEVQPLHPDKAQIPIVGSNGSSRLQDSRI
Type: cell-based
Summary of the method: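 Endogenous GlyT1 in human SK-N-MC cells, confluent after 16-18 h, in HBSS with 5 mM alanine. Compounds preincubated about 5-10 min, then 500 nM glycine (half ³H) added, 1% DMSO. Scintillation-proximity uptake recorded kinetically over 60 min; IC50 from linear-range slopes over 8 concentrations, nonspecific uptake defined with 10 μM RG-1678.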
`C[C@H](Oc1ccc(S(C)(=O)=O)cc1C(=O)N1CC2CC2(c2cc(C(F)(F)F)on2)C1)C(F)(F)F` (mixture of isomers) [Example 46, [5-Methanesulfonyl-2-(2,2,2-trifluoro-1-methyl-ethoxy)-phenyl]-[1-(5-trifluoromethyl-isoxazol-3-yl)-3-aza-bicyclo[3.1.0]hex-3-yl]-methanone] showed an IC50 of 29 nM.
`CC(C)Oc1ccc(S(C)(=O)=O)cc1C(=O)N1CC2CC2(c2noc(C(F)(F)F)n2)C1` (single isomer, unassigned) [Example 97, (2-Isopropoxy-5-methanesulfonyl-phenyl)-[1-(5-trifluoromethyl-[1,2,4]oxadiazol-3-yl)-3-aza-bicyclo[3.1.0]hex-3-yl]-methanone] was tested, and the IC50 was 8 nM.
`C[C@@H](Oc1ccc(S(C)(=O)=O)cc1C(=O)N1CC2CC2(c2nccc(C3CC3)n2)C1)C(F)(F)F` (mixture of isomers) [Example 79, [1-(4-Cyclopropyl-pyrimidin-2-yl)-3-aza-bicyclo[3.1.0]hex-3-yl]-[5-methanesulfonyl-2-(2,2,2-trifluoro-1-methyl-ethoxy)-phenyl]-methanone] showed an IC50 of 6 nM.
Work on `C[C@H](Oc1ccc(S(C)(=O)=O)cc1C(=O)N1CC2CC2(c2nnc(C(F)(F)F)o2)C1)C(F)(F)F` (single isomer, unassigned) [Example 126, [5-Methanesulfonyl-2-(2,2,2-trifluoro-1-methyl-ethoxy)-phenyl]-[1-(5-trifluoromethyl-[1,3,4]oxadiazol-2-yl)-3-aza-bicyclo[3.1.0]hex-3-yl]-methanone] yielded an IC50 of 16 nM.
Work on `C[C@H](Oc1ccc(S(C)(=O)=O)cc1C(=O)N1CC2CC2(c2nc(C3CC3)no2)C1)C(F)(F)F` (single isomer, unassigned) [Example 144, [1-(3-Cyclopropyl-[1,2,4]oxadiazol-5-yl)-3-aza-bicyclo[3.1.0]hex-3-yl]-[5-methanesulfonyl-2-(2,2,2-trifluoro-1-methyl-ethoxy)-phenyl]-methanone] yielded an IC50 of 164 nM.
`CC(C)Oc1ccc(S(C)(=O)=O)cc1C(=O)N1CC2CC2(c2nc(C(F)(F)F)co2)C1` (racemic) [Example 110, (2-Isopropoxy-5-methanesulfonyl-phenyl)-[1-(4-trifluoromethyl-oxazol-2-yl)-3-aza-bicyclo[3.1.0]hex-3-yl]-methanone] gave an IC50 of 1130 nM.
`CCS(=O)(=O)c1ccc(O[C@@H](C)C(F)(F)F)c(C(=O)N2CC3CC3(c3nccc(C(F)(F)F)n3)C2)c1` (mixture of isomers) [Example 73, [5-Ethanesulfonyl-2-(2,2,2-trifluoro-1-methyl-ethoxy)-phenyl]-[1-(4-trifluoromethyl-pyrimidin-2-yl)-3-aza-bicyclo[3.1.0]hex-3-yl]-methanone] gave an IC50 of 9 nM.
With `C[C@@H](Oc1ccc(S(C)(=O)=O)cc1C(=O)N1CC2CC2(c2noc(C(F)(F)F)n2)C1)C(F)(F)F` (single isomer, unassigned) [Example 4, [5-Methanesulfonyl-2-(2,2,2-trifluoro-1-methyl-ethoxy)-phenyl]-[1-(5-trifluoromethyl-[1,2,4]oxadiazol-3-yl)-3-aza-bicyclo[3.1.0]hex-3-yl]-methanone] the IC50 was 9 nM.
`C[C@H](Oc1ccc(S(C)(=O)=O)cc1C(=O)N1CC2CC2(c2cccc(C(F)(F)F)n2)C1)C(F)(F)F` (mixture of isomers) [Example 54, [5-Methanesulfonyl-2-(2,2,2-trifluoro-1-methyl-ethoxy)-phenyl]-[1-(6-trifluoromethyl-pyridin-2-yl)-3-aza-bicyclo[3.1.0]hex-3-yl]-methanone] was tested, and the IC50 was 16 nM.
Work on `C[C@H](Oc1ccc(S(C)(=O)=O)cc1C(=O)N1CC2CC2(c2noc(C3CC(F)(F)C3)n2)C1)C(F)(F)F` (single isomer, unassigned) [Example 60] yielded an IC50 of 372 nM.
For `C[C@@H](Oc1ccc(S(C)(=O)=O)cc1C(=O)N1CC2CC2(c2noc(C3(C(F)(F)F)CC3)n2)C1)C(F)(F)F` (single isomer, unassigned) [Example 70, [5-Methanesulfonyl-2-(2,2,2-trifluoro-1-methyl-ethoxy)-phenyl]-{1-[5-(1-trifluoromethyl-cyclopropyl)-[1,2,4]oxadiazol-3-yl]-3-aza-bicyclo[3.1.0]hex-3-yl}-methanone], the IC50 was 155 nM.
In the case of `CCS(=O)(=O)c1ccc(O[C@@H](C)C(F)(F)F)c(C(=O)N2CC3CC3(c3noc(C(F)(F)F)n3)C2)c1` (mixture of isomers) [Example 40, [5-Ethanesulfonyl-2-(2,2,2-trifluoro-1-methyl-ethoxy)-phenyl]-[1-(5-trifluoromethyl-[1,2,4]oxadiazol-3-yl)-3-aza-bicyclo[3.1.0]hex-3-yl]-methanone], the IC50 is reported as 19 nM.
`C[C@H](Oc1ccc(S(C)(=O)=O)cc1C(=O)N1CC2CC2(c2nccc(C(F)(F)F)n2)C1)C(F)(F)F` (mixture of isomers) [Example 15, [5-Methanesulfonyl-2-(2,2,2-trifluoro-1-methyl-ethoxy)-phenyl]-[1-(4-trifluoromethyl-pyrimidin-2-yl)-3-aza-bicyclo[3.1.0]hex-3-yl]-methanone] showed an IC50 of 14 nM.
`C[C@H](Oc1ccc(S(C)(=O)=O)cc1C(=O)N1CC2CC2(c2ncc(C(F)(F)F)o2)C1)C(F)(F)F` (single isomer, unassigned) [Example 133, [5-Methanesulfonyl-2-(2,2,2-trifluoro-1-methyl-ethoxy)-phenyl]-[1-(5-trifluoromethyl-oxazol-2-yl)-3-aza-bicyclo[3.1.0]hex-3-yl]-methanone] gave an IC50 of 403 nM.
`CC(Oc1ccc(C#N)cc1C(=O)N1CC2CC2(c2noc(C(F)(F)F)n2)C1)C(F)(F)F` (centres unmarked) [Example 39, 4-(2,2,2-Trifluoro-1-methyl-ethoxy)-3-[1-(5-trifluoromethyl-[1,2,4]oxadiazol-3-yl)-3-aza-bicyclo[3.1.0]hexane-3-carbonyl]-benzonitrile] gave an IC50 of 143 nM.
In the case of `CCS(=O)(=O)c1ccc(O[C@H](C)C(F)(F)F)c(C(=O)N2CC3CC3(c3nccc(C(F)(F)F)n3)C2)c1` (single isomer, unassigned) [Example 78, [5-Ethanesulfonyl-2-(2,2,2-trifluoro-1-methyl-ethoxy)-phenyl]-[1-(4-trifluoromethyl-pyrimidin-2-yl)-3-aza-bicyclo[3.1.0]hex-3-yl]-methanone], the IC50 is reported as 7 nM.
`C[C@@H](Oc1ccc(S(C)(=O)=O)cc1C(=O)N1CC2CC2(c2noc(C(F)(F)F)n2)C1)C(F)(F)F` (mixture of isomers) [Example 58, [5-Methanesulfonyl-2-(2,2,2-trifluoro-1-methyl-ethoxy)-phenyl]-[1-(5-trifluoromethyl-[1,2,4]oxadiazol-3-yl)-3-aza-bicyclo[3.1.0]hex-3-yl]-methanone] showed an IC50 of 17 nM.
In the case of `C[C@H](Oc1ccc(S(C)(=O)=O)cc1C(=O)N1CC2CC2(c2noc(C3CC3)n2)C1)C(F)(F)F` (single isomer, unassigned) [Example 10, [1-(5-Cyclopropyl-[1,2,4]oxadiazol-3-yl)-3-aza-bicyclo[3.1.0]hex-3-yl]-[5-methanesulfonyl-2-(2,2,2-trifluoro-1-methyl-ethoxy)-phenyl]-methanone], the IC50 is reported as 42 nM.
`Cc1c(C23CC2CN(C(=O)c2cc(S(C)(=O)=O)ccc2O[C@@H](C)C(F)(F)F)C3)noc1C(F)(F)F` (single isomer, unassigned) [Example 165] was tested, and the IC50 was 394 nM.
For `C[C@H](Oc1ccc(C#N)cc1C(=O)N1CC2CC2(c2noc(C(F)(F)F)n2)C1)C(F)(F)F` (mixture of isomers) [Example 88, 4-(2,2,2-Trifluoro-1-methyl-ethoxy)-3-[1-(5-trifluoromethyl-[1,2,4]oxadiazol-3-yl)-3-aza-bicyclo[3.1.0]hexane-3-carbonyl]-benzonitrile], the IC50 was 168 nM.
`C[C@H](Oc1ccc(S(C)(=O)=O)cc1C(=O)N1CC2CC2(c2noc(C3(C)CC3)n2)C1)C(F)(F)F` (mixture of isomers) [Example 134, [5-Methanesulfonyl-2-(2,2,2-trifluoro-1-methyl-ethoxy)-phenyl]-{1-[5-(1-methyl-cyclopropyl)-[1,2,4]oxadiazol-3-yl]-3-aza-bicyclo[3.1.0]hex-3-yl}-methanone] showed an IC50 of 8 nM.
In the case of `C[C@@H](Oc1ccc(S(C)(=O)=O)cc1C(=O)N1CC2CC2(c2nnc(C3(C(F)(F)F)CC3)o2)C1)C(F)(F)F` (single isomer, unassigned) [Example 150, [5-Methanesulfonyl-2-(2,2,2-trifluoro-1-methyl-ethoxy)-phenyl]-{1-[5-(1-trifluoromethyl-cyclopropyl)-[1,3,4]oxadiazol-2-yl]-3-aza-bicyclo[3.1.0]hex-3-yl}-methanone], the IC50 is reported as 232 nM.
`COC1(c2nc(C34CC3CN(C(=O)c3cc(S(C)(=O)=O)ccc3O[C@@H](C)C(F)(F)F)C4)no2)CC1` (mixture of isomers) [Example 116, [5-Methanesulfonyl-2-(2,2,2-trifluoro-1-methyl-ethoxy)-phenyl]-{1-[5-(1-methoxy-cyclopropyl)-[1,2,4]oxadiazol-3-yl]-3-aza-bicyclo[3.1.0]hex-3-yl}-methanone] gave an IC50 of 10 nM.
